# According to patent US11058671B2, “Formulations and methods of manufacturing formulations for use in colonic evacuation” (RedHill Biopharma Ltd., priority 2012, dated 2021):
# Assay: Excipient compatibility study (colour change / ascorbic acid degradation)
# Assay type: physicochemical
# Settings: presence of metallic cations (such as Cu2+, Fe3+, Zn2+)
# Protocol: Excipient compatibility studies with all excipients against Na picosulfate and ascorbic acid were carried out. Antioxidants like Na meta-bisulphite, Na bisulphite and Na sulphite were added. Further, the study was carried out to determine if citric acid helped stabilize the colour change of ascorbic acid. Samples were assessed at 1 week, 2 weeks, 4 weeks and at 8 weeks.
# Tertiary mixtures with components (250 mg MgO+500 mg AA+25 mg Sulphites (or 100 mg Acids) • MgO+ascorbic acid+Na meta-sulphite • MgO+ascorbic acid+Na bisulphite • MgO+ascorbic acid+Na sulphite • MgO+ascorbic acid+citric acid • MgO+ascorbic acid+tartaric acid • MgO+sodium ascorbate+Na meta-sulphite • MgO+sodium ascorbate+Na bisulphite • MgO+sodium ascorbate+Na sulphite • MgO+sodium ascorbate+citric acid • MgO+sodium ascorbate+tartaric acid Quaternary mixtures with components ((250 m, MgO+500 mg AA+20 mg NaP+25 Sulphites (or 100 mg acids) • MgO+Na picosulfate+ascorbic acid+Na meta-sulphite • MgO+Na picosulfate+ascorbic acid+Na bisulphite • MgO+Na picosulfate+ascorbic acid+Na sulphite • MgO+Na picosulfate+ascorbic acid+citric acid • MgO+Na Picosulfate+ascorbic acid+tartaric acid
# Binary, tertiary and quaternary mixtures of the API and excipients at various ratios were prepared as follows: • 1. […] Add approximately half of the excipient quantity into a container. • 3. […]
smiles,measurement,value
O=C1O[C@H]([C@@H](O)CO)C(O)=C1O [ascorbic acid],Degradation of ascorbic acid with excipients,degrades in the presence of metallic cations
